Assay results: patent US20250388589A1, “TRICYCLIC HETEROCYCLIC DERIVATIVES, COMPOSITIONS AND USES THEREOF” (Danatlas Pharmaceuticals Co., Ltd., priority 2022, published 2025)
Read-outs that look alike come from different tables or passages of the source.

Legend:
[1] = target: hPARG (C-terminal His6-tag) (Homo sapiens (Human), UniProt Q86W56); assay: PARG Enzymatic Activity Assay (HTRF); type: biochemical; settings: hPARG 65 pM final, biotinylated-NAD ribosylated PARP1 8 nM final
Outline: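 E. coli-expressed enzyme (65 pM final) preincubated 60 min RT with compounds (10-point 4-fold dilution, duplicate) in 50 mM Tris pH 7.4, 3 mM EDTA, 1 mM DTT, 50 mM KCl, 0.01% Tween 20. Biotinylated-NAD ribosylated PARP1 substrate (8 nM final) reacted 10 min RT; Eu-streptavidin/anti-6HIS-XL665 HTRF read 665/620 nm after 60 min. IC50 from 4-parameter Hill fit.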

Kuramochi cell line = assay: Cell Viability Assay (Cell Titer-Glo, 7 days); type: cell-based; settings: Kuramochi cells, 7 days incubation, read-out: PARG Cell viability (IC50)
Outline: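 Kuramochi cells in RPMI with 10% FBS, seeded at 400 cells/well, were treated with a 9-point 3-fold dilution series in duplicate for 7 days at 37 °C, 5% CO2. Viability by CellTiter-Glo luminescence, normalised to DMSO and medium-only controls; IC50 from 4-parameter Hill fit.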

Chain of hPARG (C-terminal His6-tag) (Q86W56 whole entry): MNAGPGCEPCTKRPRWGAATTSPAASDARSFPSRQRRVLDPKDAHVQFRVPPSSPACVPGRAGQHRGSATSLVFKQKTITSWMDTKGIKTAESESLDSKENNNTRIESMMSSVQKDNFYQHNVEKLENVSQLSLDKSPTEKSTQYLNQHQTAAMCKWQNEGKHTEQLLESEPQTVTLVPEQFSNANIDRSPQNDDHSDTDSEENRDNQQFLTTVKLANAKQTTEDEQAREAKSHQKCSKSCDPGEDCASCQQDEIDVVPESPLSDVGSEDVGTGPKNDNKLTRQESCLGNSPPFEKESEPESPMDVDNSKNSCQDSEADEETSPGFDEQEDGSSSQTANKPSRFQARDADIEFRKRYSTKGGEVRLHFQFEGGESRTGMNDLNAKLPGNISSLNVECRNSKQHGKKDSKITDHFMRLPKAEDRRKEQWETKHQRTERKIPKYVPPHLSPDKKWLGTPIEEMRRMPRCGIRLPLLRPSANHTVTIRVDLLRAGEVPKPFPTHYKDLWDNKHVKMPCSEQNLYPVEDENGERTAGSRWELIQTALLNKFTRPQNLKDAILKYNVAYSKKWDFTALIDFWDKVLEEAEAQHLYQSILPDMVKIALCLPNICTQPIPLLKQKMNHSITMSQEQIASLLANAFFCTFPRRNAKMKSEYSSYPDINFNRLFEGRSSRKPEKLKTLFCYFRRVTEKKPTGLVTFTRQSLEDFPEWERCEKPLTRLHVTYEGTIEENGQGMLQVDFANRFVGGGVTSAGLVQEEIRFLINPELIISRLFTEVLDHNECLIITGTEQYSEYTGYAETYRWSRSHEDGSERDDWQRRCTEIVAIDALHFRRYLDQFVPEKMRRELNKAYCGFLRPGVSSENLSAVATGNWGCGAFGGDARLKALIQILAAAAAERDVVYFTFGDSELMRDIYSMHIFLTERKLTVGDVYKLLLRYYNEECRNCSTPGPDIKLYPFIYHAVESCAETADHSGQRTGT

IC50 [1] [nM]	SMILES	IC50 (Kuramochi cell line; 168 h) [nM]	IC50 (Kuramochi cell line) [nM]
< 100	CCC(=O)N1CCC(c2ncnc3c2c2ccc(S(=O)(=O)NC4(C#N)CC4)cc2n3-c2nnc(C(F)F)s2)CC1 [Example 120, N-(1-cyanocyclopropyl)-9-(5-(difluoromethyl)-1,3,4-thiadiazol-2-yl)-4-(1-propionylpiperidin-4-yl)-9H-pyrimido[4,5-b]indole-7-sulfonamide]	< 100	–
< 100	N#CC1(NS(=O)(=O)c2ccc3c4c(N5CC[C@@H](O)[C@@H](F)C5)ncnc4n(-c4nnc(C(F)F)s4)c3c2)CC1 [Example 174, N-(1-cyanocyclopropyl)-9-(5-(difluoromethyl)-1,3,4-thiadiazol-2-yl)-4-((3S,4R)-3-fluoro-4-hydroxypiperidin-1-yl)-9H-pyrimido[4,5-b]indole-7-sulfonamide]	< 100	–
< 100	N#CC1(NS(=O)(=O)c2ccc3c4c(N5CCn6c(nnc6C(F)(F)F)C5)ncnc4n(-c4nnc(C(F)F)s4)c3c2)CC1 [Example 156, N-(1-cyanocyclopropyl)-9-(5-(difluoromethyl)-1,3,4-thiadiazol-2-yl)-4-(3-(trifluoromethyl)-5,6-dihydro-[1,2,4]triazolo[4,3-a]pyrazin-7(8H)-yl)-9H-pyrimido[4,5-b]indole-7-sulfonamide]	< 100	–
< 100	CS(=O)(=O)N1CCC(c2ncnc3c2c2ccc(S(=O)(=O)NC4(C#N)CC4)cc2n3-c2nnc(C(F)F)s2)CC1 [Example 121, N-(1-Cyanocyclopropyl)-9-(5-(difluoromethyl)-1,3,4-thiadiazol-2-yl)-4-(1-(methylsulfonyl)piperidin-4-yl)-9H-pyrimido[4,5-b]indole-7-sulfonamide]	< 100	–
< 100	N#CC1(NS(=O)(=O)c2ccc3c4c(N5CCN6C(=O)COC[C@H]6C5)ncnc4n(-c4nnc(C(F)F)s4)c3c2)CC1 [Example 168, (R)—N-(1-Cyanocyclopropyl)-9-(5-(difluoromethyl)-1,3,4-thiadiazol-2-yl)-4-(4-oxohexahydropyrazino[2,1-c][1,4]oxazin-8(1H)-yl)-9H-pyrimido[4,5-b]indole-7-sulfonamide]	< 100	–
< 100	CO[C@H]1CCN(c2ncnc3c2c2ccc(S(=O)(=O)NC4(C#N)CC4)cc2n3-c2nnc(C(F)F)s2)C[C@H]1F [Example 173, N-(1-cyanocyclopropyl)-9-(5-(difluoromethyl)-1,3,4-thiadiazol-2-yl)-4-((3R,4S)-3-fluoro-4-methoxypiperidin-1-yl)-9H-pyrimido[4,5-b]indole-7-sulfonamide]	< 100	–
< 100	N#CC1(NS(=O)(=O)c2ccc3c4c(N5CCCOCC5)ncnc4n(-c4nnc(C(F)F)s4)c3c2)CC1 [Example 170, N-(1-Cyanocyclopropyl)-9-(5-(difluoromethyl)-1,3,4-thiadiazol-2-yl)-4-(1,4-oxazepan-4-yl)-9H-pyrimido[4,5-b]indole-7-sulfonamide]	< 100	–
< 100	N#CC1(NS(=O)(=O)c2ccc3c4c(C5CCN(C(=O)C6COC6)CC5)ncnc4n(-c4nnc(C(F)F)s4)c3c2)CC1 [Example 113, N-(1-cyanocyclopropyl)-9-(5-(difluoromethyl)-1,3,4-thiadiazol-2-yl)-4-(1-(oxetane-3-carbonyl)piperidin-4-yl)-9H-pyrimido[4,5-b]indole-7-sulfonamide]	< 100	–
< 100	C[C@H]1CN(c2ncnc3c2c2ccc(S(=O)(=O)NC4(C#N)CC4)cc2n3-c2nnc(C(F)F)s2)CCN1CC1CC1 [Example 164, (S)-N-(1-cyanocyclopropyl)-4-(4-(cyclopropylmethyl)-3-methylpiperazin-1-yl)-9-(5-(difluoromethyl)-1,3,4-thiadiazol-2-yl)-9H-pyrimido[4,5-b]indole-7-sulfonamide]	< 100	–
< 100	CC(C)(N)C(=O)N1CCC(c2ncnc3c2c2ccc(S(=O)(=O)NC4(C#N)CC4)cc2n3-c2nnc(C(F)F)s2)CC1 [Example 126, 4-(1-(2-Amino-2-methylpropanoyl)piperidin-4-yl)-N-(1-cyanocyclopropyl)-9-(5-(difluoromethyl)-1,3,4-thiadiazol-2-yl)-9H-pyrimido[4,5-b]indole-7-sulfonamide]	100 to 1000	–
< 100	C[C@H]1CN(c2ncnc3c2c2ccc(S(=O)(=O)NC4(C#N)CC4)cc2n3-c2nnc(C(F)F)s2)CCN1CC(F)(F)F [Example 159, (S)-N-(1-cyanocyclopropyl)-9-(5-(difluoromethyl)-1,3,4-thiadiazol-2-yl)-4-(3-methyl-4-(2,2,2-trifluoroethyl)piperazin-1-yl)-9H-pyrimido[4,5-b]indole-7-sulfonamide]	100 to 1000	–
< 100	N#CC1(NS(=O)(=O)c2ccc3c4c(C5CCN(C(=O)N6CC[C@@H](O)C6)CC5)ncnc4n(-c4nnc(C(F)F)s4)c3c2)CC1 [Example 129, (R)—N-(1-Cyanocyclopropyl)-9-(5-(difluoromethyl)-1,3,4-thiadiazol-2-yl)-4-(1-(3-hydroxypyrrolidine-1-carbonyl)piperidin-4-yl)-9H-pyrimido[4,5-b]indole-7-sulfonamide]	100 to 1000	–
< 100	C[C@H]1CC(c2ncnc3c2c2cc(F)c(S(=O)(=O)NC4(C)CC4)cc2n3-c2nnc(C(F)F)s2)CCN1C(=O)N(C)C (stereo partly drawn) [Example 149, (2S)-4-(9-(5-(difluoromethyl)-1,3,4-thiadiazol-2-yl)-6-fluoro-7-(N-(1-methylcyclopropyl)sulfamoyl)-9H-pyrimido[4,5-b]indol-4-yl)-N,N,2-trimethylpiperidine-1-carboxamide]	–	< 100

More lines, now with the values behind:

SMILES	IC50 [1] [nM]	IC50 (Kuramochi cell line; 168 h) [nM]	IC50 (Kuramochi cell line) [nM]
N#CC1(NS(=O)(=O)c2ccc3c4c(C5=CCC(O)CC5)ncnc4n(-c4nnc(C(F)F)s4)c3c2)CC1 (stereo not shown) [Example 84, N-(1-Cyanocyclopropyl)-9-(5-(difluoromethyl)-1,3,4-thiadiazol-2-yl)-4-(4-hydroxycyclohex-1-en-1-yl)-9H-pyrimido[4,5-b]indole-7-sulfonamide]	< 100	< 100	–
C[C@H](O)C(=O)N1CCC(c2ncnc3c2c2ccc(S(=O)(=O)NC4(C#N)CC4)cc2n3-c2nnc(C(F)F)s2)CC1 [Example 106, (S)-N-(1-Cyanocyclopropyl)-9-(5-(difluoromethyl)-1,3,4-thiadiazol-2-yl)-4-(1-(2-hydroxypropanoyl)piperidin-4-yl)-9H-pyrimido[4,5-b]indole-7-sulfonamide]	< 100	< 100	–
C[C@H]1CN(c2ncnc3c2c2ccc(S(=O)(=O)NC4(C)CC4)cc2n3-c2nnc(C(F)F)s2)CCO1 [Example 99, (S)-9-(5-(Difluoromethyl)-1,3,4-thiadiazol-2-yl)-N-(1-methylcyclopropyl)-4-(2-methylmorpholino)-9H-pyrimido[4,5-b]indole-7-sulfonamide]	< 100	< 100	–
N#CC1(NS(=O)(=O)c2ccc3c4c(N5CCN(C(=O)C6CCC6)CC5)ncnc4n(-c4nnc(C(F)F)s4)c3c2)CC1 [Example 30, N-(1-Cyanocyclopropyl)-4-(4-(cyclobutanecarbonyl)piperazin-1-yl)-9-(5-(difluoromethyl)-1,3,4-thiadiazol-2-yl)-9H-pyrimido[4,5-b]indole-7-sulfonamide]	< 100	100 to 1000	–
N#CC1(NS(=O)(=O)c2ccc3c4c(N5C6CCC5COC6)ncnc4n(-c4nnc(C(F)F)s4)c3c2)CC1 [Example 210, 4-(3-Oxa-8-azabicyclo[3.2.1]octan-8-yl)-N-(1-cyanocyclopropyl)-9-(5-(difluoromethyl)-1,3,4-thiadiazol-2-yl)-9H-pyrimido[4,5-b]indole-7-sulfonamide]	< 100	< 100	–
CN(C)C(=O)N1CCC(c2ncnc3c2c2cc(F)c(S(=O)(=O)NC4(C)CC4)cc2n3-c2nnc(C(F)F)s2)CC1 [Example 82, 4-(9-(5-(Difluoromethyl)-1,3,4-thiadiazol-2-yl)-6-fluoro-7-(N-(1-methylcyclopropyl)sulfamoyl)-9H-pyrimido[4,5-b]indol-4-yl)-N,N-dimethylpiperidine-1-carboxamide]	< 100	< 100	–
C[C@H]1CN(c2ncnc3c2c2ccc(S(=O)(=O)NC4(C#N)CC4)cc2n3-c2nnc(C(F)F)s2)CCN1C [Example 98, (S)—N-(1-Cyanocyclopropyl)-9-(5-(difluoromethyl)-1,3,4-thiadiazol-2-yl)-4-(3,4-dimethylpiperazin-1-yl)-9H-pyrimido[4,5-b]indole-7-sulfonamide]	< 100	< 100	–
CO[C@H](C)C(=O)N1CCC(c2ncnc3c2c2ccc(S(=O)(=O)NC4(C#N)CC4)cc2n3-c2nnc(C(F)F)s2)CC1 [Example 109, (R)-N-(1-cyanocyclopropyl)-9-(5-(difluoromethyl)-1,3,4-thiadiazol-2-yl)-4-(1-(2-methoxypropanoyl)piperidin-4-yl)-9H-pyrimido[4,5-b]indole-7-sulfonamide]	< 100	< 100	–
CC1(NS(=O)(=O)c2ccc3c4c(C5CCNCC5)ncnc4n(-c4nnc(C(F)F)s4)c3c2)CC1 [Example 93, 9-(5-(Difluoromethyl)-1,3,4-thiadiazol-2-yl)-N-(1-methylcyclopropyl)-4-(piperidin-4-yl)-9H-pyrimido[4,5-b]indole-7-sulfonamide]	< 100	< 100	–
CC(C)[S+]([O-])N1CCN(c2ncnc3c2c2ccc(S(=O)(=O)NC4(C#N)CC4)cc2n3-c2nnc(C(F)F)s2)CC1 (stereo not shown) [Example 69, N-(1-Cyanocyclopropyl)-9-(5-(difluoromethyl)-1,3,4-thiadiazol-2-yl)-4-(4-(isopropylsulfinyl)piperazin-1-yl)-9H-pyrimido[4,5-b]indole-7-sulfonamide]	< 100	< 100	–
